Results published in patent US20250134867A1, “METHOD FOR MODULATING LIPID METABOLISM, AMELIORATING NON-ALCOHOLIC FATTY LIVER DISEASE AND METABOLIC SYNDROME BY USING 6-METHOXYBENZOXAZOLINONE” (Taichung District Agricultural Research and Extension …, priority 2023, published 2025).

Key:
Assay type in all cases: in vivo
[1] = tested on: HFD-induced obese C57BL/6J mice; experiment: Body weight gain, food intake and food efficiency ratio in HFD-induced obese mice; conditions: vs HFD group; for body weight gain: HFD mice, oral gavage 12 weeks, CX 10 and 30 mg/kg/day, EGCG 30 mg/kg/day; for food efficiency ratio (FER): 12 weeks
Excerpt: (§1) To determine the effect of CX (Sigma, Inc., USA) on obesity and non-alcoholic fatty liver disease (NAFLD) in vivo, we established an experimental approach using HFD-induced obese C57BL/6J mice. CX was suspended in 0.5% methylcellulose solution for oral administration. The animals used in the examples are described below. 5-week-old male C57BL/6J mice were purchased from The National Laboratory Animal Center, Taipei, Taiwan and were maintained in a temperature-controlled room on a 12-h light-dark cycle. They were housed with four per cage and had free access to food and drinking water. Mice fed with a standard diet and adapted to the environment for 1 week were subsequently divided randomly into five groups. The ND group (n=8) continued on the same diet, whereas the other four groups (n=8 per group) were switched to the HFD (494 kcal/100 g, 45% energy as fat; TestDiet Inc., USA). Among the four HFD groups, three groups started to receive CX at 10 mg/kg/day (CX10 group), CX at 30 mg/kg/day (CX30 group), and epigallocatechin gallate (EGCG) (Sigma, Inc., USA) at 30 mg/kg/day (EGCG30 group) by oral gavage. EGCG was suspended in 0.5% methylcellulose solution for oral administration. Food consumption and weight gain were measured daily and weekly, respectively. After 12 weeks, all mice were sacrificed. Serum samples, liver tissue, epididymis adipose tissue and feces were harvested for further analysis. The experimental protocol was approved by the Animal Research Committee of the National Yang Ming Chiao Tung University (IACUC no. 1091013), and all procedures followed The Guide for the Care and Use of Laboratory Animals (NIH publication, 85-23, revised 1996) and the guidelines of the Animal Welfare Act, Taiwan.

[2] = tested on: HFD-induced obese C57BL/6J mice; experiment: Fat deposition (eWAT) and serum lipid levels in HFD-induced obese mice; conditions: 12 weeks oral; for HFD-induced increase in the mass of eWAT / serum LDL-C / serum HDL cholesterol (HDL-C) / serum total cholesterol (TC) / serum triglyceride (TG): HFD mice; for HFD-induced increase in the mass of eWAT: CX 10 and 30 mg/kg/day, EGCG 30 mg/kg/day; for serum LDL-C: calculated as (TC)-(HDL-C)-(TG/5); for serum HDL cholesterol (HDL-C) / serum total cholesterol (TC) / serum triglyceride (TG): vs HFD group; for adipocyte diameters: compared with the HFD group
Excerpt: as §1, with “The” for “To determine the effect of CX (Sigma, Inc., USA) on obesity and non-alcoholic fatty liver disease (NAFLD) in vivo, we established an experimental approach using HFD-induced obese C57BL/6J mice. CX was suspended in 0.5% methylcellulose solution for oral administration. The”, “Taiwan. The procedure regarding immunohistochemical tissue characterization is as follows. During dissection of the mice, epididymis adipose tissue and liver were isolated, weighed, and subsequently fixed in 10% paraformaldehyde in PBS. After overnight fixation, tissues were embedded in paraffin for hematoxylin and eosin (H&E) staining. All specimens were observed microscopically (Carl Zeiss Inc., Germany) at 200× magnification. […] The procedure regarding biochemical characterization is as follows. The serum triglyceride (TG), total cholesterol (TC), high-density lipoprotein-cholesterol (HDL-C), glutamic oxaloacetic transaminase (GOT), glutamic pyruvic transaminase (GPT), albumin (ALB), uric acid (UA), and creatinine (CRE) levels were measured using enzymatic assay kits with a FUJI DRI-CHEM analyzer (Fujifilm, Tokyo, Japan). The LDL-C level was calculated as [(TC)-(HDL-C)-(TG/5)].” for “Taiwan.”

[3] = tested on: HFD-induced obese C57BL/6J mice; experiment: Fasting blood glucose, IPGTT and insulin resistance in HFD-induced obese mice; conditions: for fasting blood glucose: since the second week, 16 h fasting; for insulin resistance index HOMA-IR / fasting insulin concentration (insulin expression): 12 weeks; for insulin resistance index HOMA-IR: compared with the HFD group; for fasting insulin concentration (insulin expression): serum; for AUC of IPGTT: week 12, glucose 1.0 g/kg i.p., vs HFD group
Excerpt: as §1, with “The” for “To determine the effect of CX (Sigma, Inc., USA) on obesity and non-alcoholic fatty liver disease (NAFLD) in vivo, we established an experimental approach using HFD-induced obese C57BL/6J mice. CX was suspended in 0.5% methylcellulose solution for oral administration. The”, “Taiwan. The procedure regarding blood glucose and intraperitoneal glucose tolerance test (IPGTT) is as follows. After a 16 h overnight fasting period, whole-blood glucose was measured with a glucose analyzer ([…], Taiwan). An enzymatic assay was used to measure the serum insulin concentration (Cisbio, USA). Intraperitoneal glucose tolerance tests (IPGTTs) were performed in all mice 12 weeks after the start of the study. Mice fasted for 16 h were injected intraperitoneally with glucose 1.0 g/kg body weight, blood glucose levels were measured in tail vain blood at 0, 30, 60, 90, 120 and 150 min.” for “Taiwan.”

Row | Structure (SMILES) | body weight gain [1] | HFD-induced increase in the mass of eWAT [2] | serum LDL-C [2] | serum HDL cholesterol (HDL-C) [2] | serum total cholesterol (TC) [2] | serum triglyceride (TG) [2] | adipocyte diameters [2] | fasting blood glucose ([3]; 30 mg/kg/day oral) | food efficiency ratio (FER) ([1]; 10 mg/kg/day oral gavage) | food efficiency ratio (FER) ([1]; 30 mg/kg/day oral gavage) | insulin resistance index HOMA-IR ([3]; 10 mg/kg/day oral) | fasting insulin concentration (insulin expression) ([3]; 10 mg/kg/day oral) | fasting blood glucose ([3]; 10 mg/kg/day oral) | AUC of IPGTT ([3]; 10 mg/kg/day oral) | insulin resistance index HOMA-IR ([3]; 30 mg/kg/day oral) | fasting insulin concentration (insulin expression) ([3]; 30 mg/kg/day oral) | AUC of IPGTT ([3]; 30 mg/kg/day oral)
1 | O=C(O[C@@H]1Cc2c(O)cc(O)cc2O[C@@H]1c1cc(O)c(O)c(O)c1)c1cc(O)c(O)c(O)c1 [EGCG, epigallocatechin gallate, reference compound] | significantly prevented body weight gain | ameliorated | somewhat ameliorated | did not differ significantly from the HFD group | significantly lower than the HFD group | significantly lower than the HFD group | lower cell diameters and smaller cell size | stable and significantly lower than the HFD group | – | – | – | – | – | – | – | – | –
2 | COc1ccc2[nH]c(=O)oc2c1 [CX, 6-methoxybenzoxazolinone] | significantly prevented body weight gain | ameliorated | somewhat ameliorated | did not differ significantly from the HFD group | significantly lower than the HFD group | significantly lower than the HFD group | lower cell diameters and smaller cell size | stable and significantly lower than the HFD group | greatly reduced | greatly reduced | significantly lower | significantly lower than that of the HFD group | stable and significantly lower than the HFD group | significantly decreased | significantly lower | significantly lower than that of the HFD group | significantly decreased
